Assay results from patent US20250275540A1, “USE OF PROTOPORPHYRINOGEN OXIDASE” (BEIJING DABEINONG BIOTECHNOLOGY CO., LTD., priority 2022, published 2025).

System: transgenic soybean plants
Experiment: Detection of the herbicide tolerance of the transgenic soybean plants
Type: in vivo
Conditions: for The grade of pesticide damage/plant: 0 / The grade of pesticide damage/plant: 1 / The grade of pesticide damage/plant: 2 / The grade of pesticide damage/plant: 3: 7 DAT
[1] = genotype Control vector, 360 g ai/ha
[2] = genotype Control vector, 720 g ai/ha
[3] = genotype PPO-AP-01, 360 g ai/ha
[4] = genotype PPO-AP-01, 720 g ai/ha
[5] = genotype PPO-EC-01, 360 g ai/ha
[6] = genotype PPO-EC-01, 720 g ai/ha

With `CCOc1cc(Oc2ccc(C(F)(F)F)cc2Cl)ccc1[N+](=O)[O-]` [oxyfluorfen, 2-chloro-1-(3-ethoxy-4-nitrophenoxy)-4-trifluoromethylbenzene] as the compound, how does the “The grade of pesticide damage/plant: 0” value (genotype CK, 360 g ai/ha) read?
Its value is 0 plant.

And the “The grade of pesticide damage/plant: 1” value (genotype CK, 360 g ai/ha)?
Its value is 0 plant.

And the “The grade of pesticide damage/plant: 2” value (genotype CK, 360 g ai/ha)?
Its value is 0 plant.

What about the “The grade of pesticide damage/plant: 3” value (genotype CK, 360 g ai/ha) of the same compound?
Its value is 16 plant.

What about the “The grade of pesticide damage/plant: 0” value (genotype CK, 720 g ai/ha) of the same compound?
Its value is 0 plant.

And the “The grade of pesticide damage/plant: 1” value (genotype CK, 720 g ai/ha)?
The value was 0 plant.

And the “The grade of pesticide damage/plant: 2” value (genotype CK, 720 g ai/ha)?
Its value is 0 plant.

What about the “The grade of pesticide damage/plant: 3” value (genotype CK, 720 g ai/ha) of the same compound?
The value was 16 plant.

What about the “The grade of pesticide damage/plant: 0” value [1] of the same compound?
Its value is 0 plant.

What about the “The grade of pesticide damage/plant: 1” value [1] of the same compound?
The value was 0 plant.

What about the “The grade of pesticide damage/plant: 2” value [1] of the same compound?
Its value is 0 plant.

And the “The grade of pesticide damage/plant: 3” value [1]?
Its value is 16 plant.

And the “The grade of pesticide damage/plant: 0” value [2]?
Its value is 0 plant.

What about the “The grade of pesticide damage/plant: 1” value [2] of the same compound?
Its value is 0 plant.

And the “The grade of pesticide damage/plant: 2” value [2]?
The value was 0 plant.

What about the “The grade of pesticide damage/plant: 3” value [2] of the same compound?
The value was 16 plant.

What about the “The grade of pesticide damage/plant: 0” value [3] of the same compound?
Its value is 0 plant.

What about the “The grade of pesticide damage/plant: 1” value [3] of the same compound?
Its value is 0 plant.

And the “The grade of pesticide damage/plant: 2” value [3]?
Its value is 8 plant.

What about the “The grade of pesticide damage/plant: 3” value [3] of the same compound?
Its value is 8 plant.

And the “The grade of pesticide damage/plant: 0” value [4]?
The value was 0 plant.

What about the “The grade of pesticide damage/plant: 1” value [4] of the same compound?
The value was 0 plant.

And the “The grade of pesticide damage/plant: 2” value [4]?
The value was 0 plant.

And the “The grade of pesticide damage/plant: 3” value [4]?
The value was 16 plant.

And the “tolerance to the herbicide (in words)” value (genotype PPO-AP-01, four-fold field concentration)?
Its value is “no tolerance”.

And the “share of the plants that exhibited no tolerance” value (genotype PPO-AP-01, two-fold field concentration)?
The value was 50%.

What about the “The grade of pesticide damage/plant: 0” value [5] of the same compound?
Its value is 16 plant.

And the “The grade of pesticide damage/plant: 1” value [5]?
Its value is 0 plant.

And the “The grade of pesticide damage/plant: 2” value [5]?
Its value is 0 plant.

What about the “The grade of pesticide damage/plant: 3” value [5] of the same compound?
The value was 0 plant.

And the “The grade of pesticide damage/plant: 0” value [6]?
Its value is 13 plant.

What about the “The grade of pesticide damage/plant: 1” value [6] of the same compound?
Its value is 3 plant.

And the “The grade of pesticide damage/plant: 2” value [6]?
Its value is 0 plant.

And the “The grade of pesticide damage/plant: 3” value [6]?
The value was 0 plant.

What about the “The grade of pesticide damage/plant: 0” value (genotype PPOA-01, 360 g ai/ha) of the same compound?
Its value is 16 plant.

And the “The grade of pesticide damage/plant: 1” value (genotype PPOA-01, 360 g ai/ha)?
The value was 0 plant.

And the “The grade of pesticide damage/plant: 2” value (genotype PPOA-01, 360 g ai/ha)?
Its value is 0 plant.

What about the “The grade of pesticide damage/plant: 3” value (genotype PPOA-01, 360 g ai/ha) of the same compound?
Its value is 0 plant.

And the “The grade of pesticide damage/plant: 0” value (genotype PPOA-01, 720 g ai/ha)?
The value was 15 plant.

What about the “The grade of pesticide damage/plant: 1” value (genotype PPOA-01, 720 g ai/ha) of the same compound?
Its value is 1 plant.

And the “The grade of pesticide damage/plant: 2” value (genotype PPOA-01, 720 g ai/ha)?
Its value is 0 plant.

What about the “The grade of pesticide damage/plant: 3” value (genotype PPOA-01, 720 g ai/ha) of the same compound?
The value was 0 plant.

What about the “The grade of pesticide damage/plant: 0” value (genotype PPOB-01, 360 g ai/ha) of the same compound?
Its value is 16 plant.

And the “The grade of pesticide damage/plant: 1” value (genotype PPOB-01, 360 g ai/ha)?
Its value is 0 plant.

And the “The grade of pesticide damage/plant: 2” value (genotype PPOB-01, 360 g ai/ha)?
The value was 0 plant.

What about the “The grade of pesticide damage/plant: 3” value (genotype PPOB-01, 360 g ai/ha) of the same compound?
Its value is 0 plant.

And the “The grade of pesticide damage/plant: 0” value (genotype PPOB-01, 720 g ai/ha)?
The value was 16 plant.

What about the “The grade of pesticide damage/plant: 1” value (genotype PPOB-01, 720 g ai/ha) of the same compound?
Its value is 0 plant.

What about the “The grade of pesticide damage/plant: 2” value (genotype PPOB-01, 720 g ai/ha) of the same compound?
The value was 0 plant.

What about the “The grade of pesticide damage/plant: 3” value (genotype PPOB-01, 720 g ai/ha) of the same compound?
Its value is 0 plant.

And the “The grade of pesticide damage/plant: 0” value (genotype PPOC-01, 360 g ai/ha)?
Its value is 16 plant.

And the “The grade of pesticide damage/plant: 1” value (genotype PPOC-01, 360 g ai/ha)?
Its value is 0 plant.

And the “The grade of pesticide damage/plant: 2” value (genotype PPOC-01, 360 g ai/ha)?
The value was 0 plant.

What about the “The grade of pesticide damage/plant: 3” value (genotype PPOC-01, 360 g ai/ha) of the same compound?
Its value is 0 plant.

What about the “The grade of pesticide damage/plant: 0” value (genotype PPOC-01, 720 g ai/ha) of the same compound?
Its value is 16 plant.

And the “The grade of pesticide damage/plant: 1” value (genotype PPOC-01, 720 g ai/ha)?
Its value is 0 plant.

What about the “The grade of pesticide damage/plant: 2” value (genotype PPOC-01, 720 g ai/ha) of the same compound?
The value was 0 plant.

What about the “The grade of pesticide damage/plant: 3” value (genotype PPOC-01, 720 g ai/ha) of the same compound?
Its value is 0 plant.

What about the “The grade of pesticide damage/plant: 0” value (genotype PPOD-01, 360 g ai/ha) of the same compound?
Its value is 16 plant.

What about the “The grade of pesticide damage/plant: 1” value (genotype PPOD-01, 360 g ai/ha) of the same compound?
The value was 0 plant.

And the “The grade of pesticide damage/plant: 2” value (genotype PPOD-01, 360 g ai/ha)?
Its value is 0 plant.

What about the “The grade of pesticide damage/plant: 3” value (genotype PPOD-01, 360 g ai/ha) of the same compound?
The value was 0 plant.

What about the “The grade of pesticide damage/plant: 0” value (genotype PPOD-01, 720 g ai/ha) of the same compound?
The value was 16 plant.

And the “The grade of pesticide damage/plant: 1” value (genotype PPOD-01, 720 g ai/ha)?
Its value is 0 plant.

What about the “The grade of pesticide damage/plant: 2” value (genotype PPOD-01, 720 g ai/ha) of the same compound?
Its value is 0 plant.

What about the “The grade of pesticide damage/plant: 3” value (genotype PPOD-01, 720 g ai/ha) of the same compound?
The value was 0 plant.

And the “The grade of pesticide damage/plant: 0” value (genotype PPOE-01, 360 g ai/ha)?
Its value is 16 plant.

And the “The grade of pesticide damage/plant: 1” value (genotype PPOE-01, 360 g ai/ha)?
The value was 0 plant.

What about the “The grade of pesticide damage/plant: 2” value (genotype PPOE-01, 360 g ai/ha) of the same compound?
The value was 0 plant.

And the “The grade of pesticide damage/plant: 3” value (genotype PPOE-01, 360 g ai/ha)?
The value was 0 plant.

And the “The grade of pesticide damage/plant: 0” value (genotype PPOE-01, 720 g ai/ha)?
The value was 14 plant.

And the “The grade of pesticide damage/plant: 1” value (genotype PPOE-01, 720 g ai/ha)?
The value was 2 plant.

What about the “The grade of pesticide damage/plant: 2” value (genotype PPOE-01, 720 g ai/ha) of the same compound?
The value was 0 plant.

And the “The grade of pesticide damage/plant: 3” value (genotype PPOE-01, 720 g ai/ha)?
Its value is 0 plant.

What about the “The grade of pesticide damage/plant: 0” value (genotype PPOF-01, 360 g ai/ha) of the same compound?
Its value is 16 plant.

And the “The grade of pesticide damage/plant: 1” value (genotype PPOF-01, 360 g ai/ha)?
The value was 0 plant.

What about the “The grade of pesticide damage/plant: 2” value (genotype PPOF-01, 360 g ai/ha) of the same compound?
Its value is 0 plant.

What about the “The grade of pesticide damage/plant: 3” value (genotype PPOF-01, 360 g ai/ha) of the same compound?
The value was 0 plant.

What about the “The grade of pesticide damage/plant: 0” value (genotype PPOF-01, 720 g ai/ha) of the same compound?
Its value is 16 plant.

What about the “The grade of pesticide damage/plant: 1” value (genotype PPOF-01, 720 g ai/ha) of the same compound?
The value was 0 plant.

And the “The grade of pesticide damage/plant: 2” value (genotype PPOF-01, 720 g ai/ha)?
Its value is 0 plant.

And the “The grade of pesticide damage/plant: 3” value (genotype PPOF-01, 720 g ai/ha)?
The value was 0 plant.

And the “tolerance to the herbicide (in words)” value (genotypes PPOA-01 to PPOF-01 and PPO-EC-01, four-fold field concentration)?
Its value is “high-resistant tolerance”.

And the “tolerance to the herbicide (in words)” value (genotypes PPOA-01 to PPOF-01 and PPO-EC-01, two-fold field concentration)?
The value was “high-resistant tolerance”.
